Data on 18 compounds can be found in patent publication US8580794B2 (AbbVie Inc., priority 2009, dated 2013).

For this experiment, the target named is GST-Bc1-2 (Homo sapiens, UniProt P10415). The experiment can be described thus: Time Resolved-Fluorescence Resonance Energy Transfer (TR-FRET) Bcl-2 binding assay with F-Bak peptide probe. To be noted: GST-Bcl-2 1 nM, F-Bak probe 100 nM, Tb-anti-GST 1 nM; '<' = below limit of detection; read-out: TR-FRET Bcl-2 Binding Ki.
GST-Bc1-2, sequence (P10415 whole entry): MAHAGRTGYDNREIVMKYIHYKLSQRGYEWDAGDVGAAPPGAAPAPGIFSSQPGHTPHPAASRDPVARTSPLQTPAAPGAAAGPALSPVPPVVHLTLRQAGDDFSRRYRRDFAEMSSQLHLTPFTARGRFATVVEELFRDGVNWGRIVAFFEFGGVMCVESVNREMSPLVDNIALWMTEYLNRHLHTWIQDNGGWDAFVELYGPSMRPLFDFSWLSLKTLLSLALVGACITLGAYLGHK
Consider `CC1(C)CCC(CN2CCN(c3ccc(C(=O)NS(=O)(=O)c4ccc(NCc5cccc(O)c5)c([N+](=O)[O-])c4)c(Oc4cnc5[nH]ccc5c4)c3)CC2)=C(c2ccc(Cl)cc2)C1` [Example 186, 4-(4-{[2-(4-chlorophenyl)-4,4-dimethylcyclohex-1-en-1-yl]methyl}piperazin-1-yl)-N-({4-[(3-hydroxybenzyl)amino]-3-nitrophenyl}sulfonyl)-2-(1H-pyrrolo[2,3-b]pyridin-5-yloxy)benzamide], for which the Ki was determined as 0.047 nM. Then `CC1(C)CCC(CN2CCN(c3ccc(C(=O)NS(=O)(=O)c4ccc(NCc5cccc(OC(F)F)c5)c([N+](=O)[O-])c4)c(Oc4cnc5[nH]ccc5c4)c3)CC2)=C(c2ccc(Cl)cc2)C1` [Example 187, 4-(4-{[2-(4-chlorophenyl)-4,4-dimethylcyclohex-1-en-1-yl]methyl}piperazin-1-yl)-N-[(4-{[3-(difluoromethoxy)benzyl]amino}-3-nitrophenyl)sulfonyl]-2-(1H-pyrrolo[2,3-b]pyridin-5-yloxy)benzamide], with 0.08 nM; and `CC1(C)CCC(CN2CCN(c3ccc(C(=O)NS(=O)(=O)c4ccc(NC5CCN(C6CC6)CC5)c(S(=O)(=O)C(F)(F)F)c4)c(Oc4cnc5[nH]ccc5c4)c3)CC2)=C(c2ccc(Cl)cc2)C1` [Example 190, 4-(4-{[2-(4-chlorophenyl)-4,4-dimethylcyclohex-1-en-1-yl]methyl}piperazin-1-yl)-N-({4-[(1-cyclopropylpiperidin-4-yl)amino]-3-[(trifluoromethyl)sulfonyl]phenyl}sulfonyl)-2-(1H-pyrrolo[2,3-b]pyridin-5-yloxy)benzamide], with 0.026 nM. As to `CC1(C)CCC(CN2CCN(c3ccc(C(=O)NS(=O)(=O)c4ccc(OCC5(F)CCN(C6CCOCC6)CC5)c([N+](=O)[O-])c4)c(Oc4cnc5[nH]ccc5c4)c3)CC2)=C(c2ccc(Cl)cc2)C1` [Example 192, 4-(4-{[2-(4-chlorophenyl)-4,4-dimethylcyclohex-1-en-1-yl]methyl}piperazin-1-yl)-N-({4-[(4-fluoro-1-tetrahydro-2H-pyran-4-ylpiperidin-4-yl)methoxy]-3-nitrophenyl}sulfonyl)-2-(1H-pyrrolo[2,3-b]pyridin-5-yloxy)benzamide], the Ki is less than 0.01 nM. For `CC1(C)CCC(CN2CCN(c3ccc(C(=O)NS(=O)(=O)c4ccc(OCC5(F)CCN(C6CCOC6)CC5)c([N+](=O)[O-])c4)c(Oc4cnc5[nH]ccc5c4)c3)CC2)=C(c2ccc(Cl)cc2)C1` (stereo not drawn) [Example 193, 4-(4-{[2-(4-chlorophenyl)-4,4-dimethylcyclohex-1-en-1-yl]methyl}piperazin-1-yl)-N-({4-[(4-fluoro-1-tetrahydrofuran-3-ylpiperidin-4-yl)methoxy]-3-nitrophenyl}sulfonyl)-2-(1H-pyrrolo[2,3-b]pyridin-5-yloxy)benzamide], the Ki is less than 0.01 nM. Then `CC1(C)CCC(CN2CCN(c3ccc(C(=O)NS(=O)(=O)c4ccc(OCC5(F)CCN(S(C)(=O)=O)CC5)c([N+](=O)[O-])c4)c(Oc4cnc5[nH]ccc5c4)c3)CC2)=C(c2ccc(Cl)cc2)C1` [Example 194, 4-(4-{[2-(4-chlorophenyl)-4,4-dimethylcyclohex-1-en-1-yl]methyl}piperazin-1-yl)-N-[(4-{[4-fluoro-1-(methylsulfonyl)piperidin-4-yl]methoxy}-3-nitrophenyl)sulfonyl]-2-(1H-pyrrolo[2,3-b]pyridin-5-yloxy)benzamide], with less than 0.01 nM; and `CC1(C)CCC(CN2CCN(c3ccc(C(=O)NS(=O)(=O)c4ccc(NC[C@H]5CCN(C6COC6)C5)c([N+](=O)[O-])c4)c(Oc4cnc5[nH]ccc5c4)c3)CC2)=C(c2ccc(Cl)cc2)C1` [Example 195, 4-(4-{[2-(4-chlorophenyl)-4,4-dimethylcyclohex-1-en-1-yl]methyl}piperazin-1-yl)-N-{[3-nitro-4-({[(3R)-1-oxetan-3-ylpyrrolidin-3-yl]methyl}amino)phenyl]sulfonyl}-2-(1H-pyrrolo[2,3-b]pyridin-5-yloxy)benzamide], with less than 0.01 nM; and `CN(C)CCCOc1ccc(CNc2ccc(S(=O)(=O)NC(=O)c3ccc(N4CCN(CC5=C(c6ccc(Cl)cc6)CC(C)(C)CC5)CC4)cc3Oc3cnc4[nH]ccc4c3)cc2[N+](=O)[O-])cc1` [Example 197, 4-(4-{[2-(4-chlorophenyl)-4,4-dimethylcyclohex-1-en-1-yl]methyl}piperazin-1-yl)-N-{[4-({4-[3-(dimethylamino)propoxy]benzyl}amino)-3-nitrophenyl]sulfonyl}-2-(1H-pyrrolo[2,3-b]pyridin-5-yloxy)benzamide], with less than 0.01 nM.

Regarding `CC1(C)CCC(CN2CCN(c3ccc(C(=O)NS(=O)(=O)c4ccc(NCc5ccc(OCCN6CCOCC6)cc5)c([N+](=O)[O-])c4)c(Oc4cnc5[nH]ccc5c4)c3)CC2)=C(c2ccc(Cl)cc2)C1` [Example 198, 4-(4-{[2-(4-chlorophenyl)-4,4-dimethylcyclohex-1-en-1-yl]methyl}piperazin-1-yl)-N-[(4-{[4-(2-morpholin-4-ylethoxy)benzyl]amino}-3-nitrophenyl)sulfonyl]-2-(1H-pyrrolo[2,3-b]pyridin-5-yloxy)benzamide], the Ki is less than 0.01 nM. To `CC1(C)CCC(CN2CCN(c3ccc(C(=O)NS(=O)(=O)c4ccc(NCC56CC7CC(C5)C(O)C(C7)C6)c([N+](=O)[O-])c4)c(Oc4cnc5[nH]ccc5c4)c3)CC2)=C(c2ccc(Cl)cc2)C1` (stereo not drawn) [Example 199, 4-(4-{[2-(4-chlorophenyl)-4,4-dimethylcyclohex-1-en-1-yl]methyl}piperazin-1-yl)-N-{[4-({[(E)-4-hydroxy-1-adamantyl]methyl}amino)-3-nitrophenyl]sulfonyl}-2-(1H-pyrrolo[2,3-b]pyridin-5-yloxy)benzamide] belongs less than 0.01 nM; to `CC1(C)CCC(CN2CCN(c3ccc(C(=O)NS(=O)(=O)c4ccc(NCC56CC7CC(C5)C(O)C(C7)C6)c([N+](=O)[O-])c4)c(Oc4cnc5[nH]ccc5c4)c3)CC2)=C(c2ccc(Cl)cc2)C1` (stereo not drawn) [Example 200, 4-(4-{[2-(4-chlorophenyl)-4,4-dimethylcyclohex-1-en-1-yl]methyl}piperazin-1-yl)-N-{[4-({[(Z)-4-hydroxy-1-adamantyl]methyl}amino)-3-nitrophenyl]sulfonyl}-2-(1H-pyrrolo[2,3-b]pyridin-5-yloxy)benzamide], less than 0.01 nM; to `CC1(C)CCC(CN2CCN(c3ccc(C(=O)NS(=O)(=O)c4ccc(OCC5C[C@H]6C=C[C@@H]5C6)c([N+](=O)[O-])c4)c(Oc4cnc5[nH]ccc5c4)c3)CC2)=C(c2ccc(Cl)cc2)C1` (stereo partly drawn) [Example 201, N-({4-[(1S,4S)-bicyclo[2.2.1]hept-5-en-2-ylmethoxy]-3-nitrophenyl}sulfonyl)-4-(4-{[2-(4-chlorophenyl)-4,4-dimethylcyclohex-1-en-1-yl]methyl}piperazin-1-yl)-2-(1H-pyrrolo[2,3-b]pyridin-5-yloxy)benzamide], 0.014 nM. For the compound `CN1CC(Nc2ccc(S(=O)(=O)NC(=O)c3ccc(N4CCN(CC5=C(c6ccc(Cl)cc6)CC(C)(C)CC5)CC4)cc3Oc3cnc4[nH]ccc4c3)cc2[N+](=O)[O-])CC1=O` (stereo not drawn) [Example 202, 4-(4-{[2-(4-chlorophenyl)-4,4-dimethylcyclohex-1-en-1-yl]methyl}piperazin-1-yl)-N-({4-[(1-methyl-5-oxopyrrolidin-3-yl)amino]-3-nitrophenyl}sulfonyl)-2-(1H-pyrrolo[2,3-b]pyridin-5-yloxy)benzamide], the Ki is less than 0.01 nM. Then `CC1(C)CCC(CN2CCN(c3ccc(C(=O)NS(=O)(=O)c4ccc(OCC5CCCC(=O)C5)c([N+](=O)[O-])c4)c(Oc4cnc5[nH]ccc5c4)c3)CC2)=C(c2ccc(Cl)cc2)C1` (stereo not drawn) [Example 205, 4-(4-{[2-(4-chlorophenyl)-4,4-dimethylcyclohex-1-en-1-yl]methyl}piperazin-1-yl)-N-({3-nitro-4-[(3-oxocyclohexyl)methoxy]phenyl}sulfonyl)-2-(1H-pyrrolo[2,3-b]pyridin-5-yloxy)benzamide], with less than 0.01 nM. To `CC1(C)C=CC(c2ccc(Cl)cc2)=C(CN2CCN(c3ccc(C(=O)NS(=O)(=O)c4ccc(NCC5CCOCC5)c([N+](=O)[O-])c4)c(Oc4cnc5[nH]ccc5c4)c3)CC2)C1` [Example 206, 4-(4-{[2-(4-chlorophenyl)-5,5-dimethylcyclohexa-1,3-dien-1-yl]methyl}piperazin-1-yl)-N-({3-nitro-4-[(tetrahydro-2H-pyran-4-ylmethyl)amino]phenyl}sulfonyl)-2-(1H-pyrrolo[2,3-b]pyridin-5-yloxy)benzamide] belongs 0.036 nM; to `CC1(C)CCC(CN2CCN(c3ccc(C(=O)NS(=O)(=O)c4ccc(N[C@@H]5CCN(C(CF)CF)C5)c([N+](=O)[O-])c4)c(Oc4cnc5[nH]ccc5c4)c3)CC2)=C(c2ccc(Cl)cc2)C1` [Example 207, 4-(4-{[2-(4-chlorophenyl)-4,4-dimethylcyclohex-1-en-1-yl]methyl}piperazin-1-yl)-N-{[4-({(3R)-1-[2-fluoro-1-(fluoromethyl)ethyl]pyrrolidin-3-yl}amino)-3-nitrophenyl]sulfonyl}-2-(1H-pyrrolo[2,3-b]pyridin-5-yloxy)benzamide], 0.03 nM; to `CC1(C)CCC(CN2CCN(c3ccc(C(=O)NS(=O)(=O)c4cnc(OCC5(F)CCOCC5)c(C(F)(F)F)c4)c(Oc4cnc5[nH]ccc5c4)c3)CC2)=C(c2ccc(Cl)cc2)C1` [Example 208, 4-(4-{[2-(4-chlorophenyl)-4,4-dimethylcyclohex-1-en-1-yl]methyl}piperazin-1-yl)-N-{[6-[(4-fluorotetrahydro-2H-pyran-4-yl)methoxy]-5-(trifluoromethyl)pyridin-3-yl]sulfonyl}-2-(1H-pyrrolo[2,3-b]pyridin-5-yloxy)benzamide], 0.104 nM.

As for `CC1(C)CCC(CN2CCN(c3ccc(C(=O)NS(=O)(=O)c4ccc(NC[C@@H]5CCN(C6COC6)C5)c([N+](=O)[O-])c4)c(Oc4cnc5[nH]ccc5c4)c3)CC2)=C(c2ccc(Cl)cc2)C1` [Example 209, 4-(4-{[2-(4-chlorophenyl)-4,4-dimethylcyclohex-1-en-1-yl]methyl}piperazin-1-yl)-N-{[3-nitro-4-({[(3S)-1-oxetan-3-ylpyrrolidin-3-yl]methyl}amino)phenyl]sulfonyl}-2-(1H-pyrrolo[2,3-b]pyridin-5-yloxy)benzamide], the Ki was less than 0.01 nM.
